Patent publication US5650525A, “1,2-dioxetane derivatives, intermediates for syntheses thereof and methods of producing the intermediates” (priority 1994, dated 1997)
Counter-ions that a name gives are not always drawn.

Key:
[1] = Thermal stability: half-life by 1H NMR in methanol-d4 heated at 60° C. (Test Examples 1-2, 2-2); assay type: physicochemical; conditions: for half-life at 60° C.: 1 mg in methanol-d4 (0.35 ml), 1H NMR at intervals of 2 to 3 hours; for thermal stability compared with AMPPD: methanol-d4, 60° C., versus AMPPD
Description: 1 mg of 3-isopropoxy-4,4-diisopropyl-3-(3'-phosphoryloxy)phenyl-1,2-dioxetane disodium salt (Compound [40]) synthesized in Example 26 was dissolved in methanol-d4 (0.35 ml), and the solution was heated at 60° C. in a thermostated bath, so that the solution was subjected to ^1 HNMR measurement at intervals of 2 to 3 hours.
In the above ^1 HNMR measurement, Compound [40] was replaced by the commercially available AMPPD (3-(2'-spiroadamantan)-4-methoxy-4-(3"-phosphoryloxy)phenyl-1,2-dioxetane disodium salt), whereby the half-life of AMPPD at 60° C. was also calculated in the same manner as mentioned above.
1 mg of 3-t-butyl-4-methoxy-3-neopentyloxymethyl-4-(3'-phosphoryloxy)phenyl-1,2-dioxetane disodium salt (Compound [86]) synthesized in Example 66 was dissolved in methanol-d4 (0.35 ml), and the solution was heated at 60° C. in a thermostated bath, so that the solution was subjected to ^1 HNMR measurement at intervals of 2 to 3 hours.

alkaline phosphatase [2] = experiment: Chemiluminescence with alkaline phosphatase, Test Example 1-1 (FIG. 1); assay type: biochemical; conditions: 0.2 mg/ml, 0.1M diethanolamine/HCl buffer pH 10.0, 37° C.; versus AMPPD
Description: 3-isopropoxy-4,4-diisopropyl-3-(3'-phosphoryloxy)phenyl-1,2-dioxetane disodium salt (Compound [40]) synthesized in Example 26 was dissolved in a 0.1M diethanolamine/hydrochloric acid buffer solution (pH 10.0) containing 1 mM magnesium chloride and 0.05% sodium azide, in such an amount that the concentration of the dissolved Compound [40]) was 0.2 mg/ml, and the solution was stirred.
(§1) 300 μl of this solution was placed in a cartridge for assay and incubated for 90 minutes.
After this incubation, 20 μl of an enzyme solution was added to the above solution, which enzyme solution was prepared by diluting an alkaline phosphatase solution for enzyme immunoassay (made by Boehringer Mannheim Co., Ltd.) (3 mg/0.3 ml) 154 times and then 10^5 times with a 50 mM Tris/cl buffer solution (pH 7.2) containing 0.15M sodium chloride, 1 mM magnesium chloride, 0.1 mM zinc chloride and 0.1% sodium azide.
(§2) The luminescence of the above diluted enzyme solution was measured at 37° C. at regular time intervals.
For comparison, the luminescence of a commercially available AMPPD (3-(2'-spiroadamantan)-4-methoxy-4-(3"-phosphoryloxy)phenyl-1,2-dioxetane disodium salt was measured under the same conditions as mentioned above, by replacing the Compound [40] with AMPPD in accordance with the above-mentioned procedure.

alkaline phosphatase [3] = experiment: Chemiluminescence with alkaline phosphatase in presence of quaternary ammonium salt (BDMG), Test Example 2-1 (FIG. 2); assay type: biochemical; conditions: 0.2 mg/ml, 0.1M diethanolamine/HCl buffer pH 10.0 with 0.4 mg/ml BDMG, 37° C.; versus AMPPD
Description: 3-t-butyl-4-methoxy-3-neopentyloxymethyl-4-(3'-phosphoryloxy)phenyl-1,2-dioxetane disodium salt (Compound [86]) synthesized in Example 66 was dissolved in a 0.1M diethanolamine/hydrochloric acid buffer solution (pH 10.0 ) containing 0.4 mg/ml of quaternary ammonium salt (BDMG), 1 mM magnesium chloride and 0.05% sodium azide, in such an amount that the concentration of the dissolved Compound [86] was 0.2 mg/ml, and the solution was stirred.
as §1
After this incubation, 20 μl of an enzyme solution was added to the above solution, which enzyme solution was prepared by diluting an alkaline phosphatase solution for enzyme immunoassay (made by Boehringer Mannheim Co., Ltd.) (3 mg/0.3 ml) 154 times with a 50 mM Tris/cl buffer solution (pH 7.2) containing 0.15M sodium chloride, 1 mM magnesium chloride, 0.1 mM zinc chloride and 0.1% sodium azide.
as §2
For comparison, the luminescence of a commercially available AMPPD (3-(2'-spiroadamantan)-4-methoxy-4-(3"-phosphoryloxy)phenyl-1,2-dioxetane disodium salt) was measured under the same conditions as mentioned above, by replacing the Compound [86] with AMPPD in accordance with the above-mentioned procedure.

SMILES | half-life at 60° C. [1] [h] | thermal stability compared with AMPPD [1] | chemiluminescence intensity compared with AMPPD (alkaline phosphatase [2]) | chemiluminescence intensity compared with AMPPD (alkaline phosphatase [3])
COC1(c2cccc(OP(=O)(O)O)c2)OOC12C1CC3CC(C1)CC2C3 (stereo not shown) [AMPPD, 3-(2'-spiroadamantan)-4-methoxy-4-(3"-phosphoryloxy)phenyl-1,2-dioxetane disodium salt, reference compound] | 5.5 | – | – | –
CC(C)OC1(c2cccc(OP(=O)(O)O)c2)OOC1(C(C)C)C(C)C (stereo not shown) [Compound [40], 3-isopropoxy-4,4-diisopropyl-3-(3'-phosphoryloxy)phenyl-1,2-dioxetane disodium salt] | 14.3 | thermally more stable | higher intensity | –
COC1(c2cccc(OP(=O)(O)O)c2)OOC1(COCC(C)(C)C)C(C)(C)C (stereo not shown) [Compound [86], 3-t-butyl-4-methoxy-3-neopentyloxymethyl-4-(3'-phosphoryloxy)phenyl-1,2-dioxetane disodium salt] | 18.6 | thermally more stable | – | higher intensity
